The text below walks through data of ChEMBL document CHEMBL1201862, “PubChem BioAssay data set” (2004).

The nature of experiment [1]: Luminescence Cell-Based Dose Response HTS to Identify Inhibitors of 5'UTR Stem-Loop Driven Prion Protein mRNA Translation in H4 Neuroglioblastoma Cells. [Related pubchem assays: 1827 (Project Summary), 1813 (Primary HTS)]. In kind it is functional.
The target of experiment [2] is Exodeoxyribonuclease V (Escherichia coli (strain K12), UniProt P04993+P07648+P08394). The experiment in a line: E. coli RecBCD inhibitors, dose response, counter-screen for AddAB inhibitor project, absorbance, V66 E. coli, mutant T4 phage (AID 492957). Format: functional, cell-based, Escherichia coli str. K-12 substr. MG1655. (Counterscreens check selectivity or assay interference.)

The nature of experiment [3]: cytotoxicity toward NIH3T3 fibroblasts, dose response, counter-screen, cell-based, ATP luminescence, mouse fibroblasts (AID 2010).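 Note: cells exposed to compound for about 90 hours before reading.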 In kind it is functional.
Experiment [4] deals with ATP-dependent molecular chaperone HSP82 (Candida albicans (strain WO-1) (Yeast), UniProt C4YTQ8). Description: loss of DOC-induced GRE-beta-galactosidase reporter signal, dose response, Hsp90 inhibitor project, S. cerevisiae, luminescence (AID 2400).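 Note: beta-galactosidase luminescence from glucocorticoid response element reporter as proxy for Hsp90 function; inhibitor potency where signal loss means Hsp90 inhibition.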 In kind it is functional, cell-based.
Experiment [5] concerns INS1. The experiment in a line: beta cell apoptosis inhibitors, cytokine rescue, dose response, luminescence, retest (AID 449756).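 Note: cell death triggered by IL-1 beta plus TNF-alpha plus IFN-gamma mixture; protective hits raise ATP signal compared with cytokine alone wells.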 Format: functional, cell-based. The conditions noted are these: Rattus norvegicus.
Experiment [6] addresses High affinity nerve growth factor receptor (Homo sapiens, UniProt P04629). Format: functional.
Experiment [7] addresses Activin receptor type-1 (Homo sapiens, UniProt Q04771). Description: Navigating the Kinome. Panel member name: ACVR1. In kind it is functional.
Experiment [8] deals with Cyclin-dependent kinase 9 (Homo sapiens, UniProt P50750). In kind it is functional.
Sequence of Cyclin-dependent kinase 9 (P50750 whole entry): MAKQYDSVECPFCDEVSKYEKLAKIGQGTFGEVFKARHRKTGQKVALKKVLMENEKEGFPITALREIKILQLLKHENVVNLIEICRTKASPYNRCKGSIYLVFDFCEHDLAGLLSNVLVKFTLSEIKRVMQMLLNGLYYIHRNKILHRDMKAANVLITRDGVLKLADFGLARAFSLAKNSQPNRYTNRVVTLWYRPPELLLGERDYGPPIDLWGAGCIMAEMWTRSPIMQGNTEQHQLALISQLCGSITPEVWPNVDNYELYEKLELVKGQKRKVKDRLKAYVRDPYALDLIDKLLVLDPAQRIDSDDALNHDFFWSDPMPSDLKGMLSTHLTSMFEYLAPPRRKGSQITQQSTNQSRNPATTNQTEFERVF
Experiment [9] has as its target cAMP-dependent protein kinase catalytic subunit PRKX (Homo sapiens, UniProt P51817). In kind it is functional.
For experiment [10], the target named is Tyrosine-protein kinase ABL1 (Homo sapiens, UniProt P00519). Format: functional.
Experiment [11] has as its target Activated CDC42 kinase 1 (Homo sapiens, UniProt Q07912). The experiment in a line: Navigating the Kinome. Panel member name: ACK1. Format: functional.
Experiment [12] deals with Tyrosine-protein kinase receptor TYRO3 (Homo sapiens, UniProt Q06418). Format: functional.
Sequence of Tyrosine-protein kinase receptor TYRO3 (Q06418 whole entry): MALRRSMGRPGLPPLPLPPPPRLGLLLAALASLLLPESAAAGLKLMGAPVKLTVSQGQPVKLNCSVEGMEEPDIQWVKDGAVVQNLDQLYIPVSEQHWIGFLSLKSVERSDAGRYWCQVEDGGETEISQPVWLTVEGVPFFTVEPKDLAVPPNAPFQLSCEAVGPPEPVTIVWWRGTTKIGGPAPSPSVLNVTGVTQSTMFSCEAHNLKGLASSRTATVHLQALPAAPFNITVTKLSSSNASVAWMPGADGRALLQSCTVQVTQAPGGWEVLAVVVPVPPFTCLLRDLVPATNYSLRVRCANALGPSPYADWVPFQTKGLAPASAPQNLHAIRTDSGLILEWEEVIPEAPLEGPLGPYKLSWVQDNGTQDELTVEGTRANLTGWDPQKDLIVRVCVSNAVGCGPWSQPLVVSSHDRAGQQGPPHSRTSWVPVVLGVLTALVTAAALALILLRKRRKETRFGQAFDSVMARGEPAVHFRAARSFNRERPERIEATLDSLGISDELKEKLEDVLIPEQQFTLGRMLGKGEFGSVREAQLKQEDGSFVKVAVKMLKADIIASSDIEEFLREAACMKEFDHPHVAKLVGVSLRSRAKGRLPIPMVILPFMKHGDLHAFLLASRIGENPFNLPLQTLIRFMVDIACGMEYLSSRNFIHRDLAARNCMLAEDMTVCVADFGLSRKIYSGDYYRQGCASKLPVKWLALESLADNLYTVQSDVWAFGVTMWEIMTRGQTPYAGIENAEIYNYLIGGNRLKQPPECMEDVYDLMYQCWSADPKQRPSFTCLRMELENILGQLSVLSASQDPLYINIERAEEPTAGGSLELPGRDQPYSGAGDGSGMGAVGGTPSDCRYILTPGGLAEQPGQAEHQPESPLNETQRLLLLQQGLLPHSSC
The target in experiment [13] is Mitogen-activated protein kinase kinase kinase kinase 2 (Homo sapiens, UniProt Q12851). In kind it is functional.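 Note: measured as one member of a kinome-wide kinase panel, with MAP4K2 as the panel entry.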
The target in experiment [14] is Macrophage colony-stimulating factor 1 receptor (Homo sapiens, UniProt P07333). In kind it is functional.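 Note: value comes from the Navigating the Kinome screening panel, CSF1R member.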
Sequence of Macrophage colony-stimulating factor 1 receptor (P07333 whole entry): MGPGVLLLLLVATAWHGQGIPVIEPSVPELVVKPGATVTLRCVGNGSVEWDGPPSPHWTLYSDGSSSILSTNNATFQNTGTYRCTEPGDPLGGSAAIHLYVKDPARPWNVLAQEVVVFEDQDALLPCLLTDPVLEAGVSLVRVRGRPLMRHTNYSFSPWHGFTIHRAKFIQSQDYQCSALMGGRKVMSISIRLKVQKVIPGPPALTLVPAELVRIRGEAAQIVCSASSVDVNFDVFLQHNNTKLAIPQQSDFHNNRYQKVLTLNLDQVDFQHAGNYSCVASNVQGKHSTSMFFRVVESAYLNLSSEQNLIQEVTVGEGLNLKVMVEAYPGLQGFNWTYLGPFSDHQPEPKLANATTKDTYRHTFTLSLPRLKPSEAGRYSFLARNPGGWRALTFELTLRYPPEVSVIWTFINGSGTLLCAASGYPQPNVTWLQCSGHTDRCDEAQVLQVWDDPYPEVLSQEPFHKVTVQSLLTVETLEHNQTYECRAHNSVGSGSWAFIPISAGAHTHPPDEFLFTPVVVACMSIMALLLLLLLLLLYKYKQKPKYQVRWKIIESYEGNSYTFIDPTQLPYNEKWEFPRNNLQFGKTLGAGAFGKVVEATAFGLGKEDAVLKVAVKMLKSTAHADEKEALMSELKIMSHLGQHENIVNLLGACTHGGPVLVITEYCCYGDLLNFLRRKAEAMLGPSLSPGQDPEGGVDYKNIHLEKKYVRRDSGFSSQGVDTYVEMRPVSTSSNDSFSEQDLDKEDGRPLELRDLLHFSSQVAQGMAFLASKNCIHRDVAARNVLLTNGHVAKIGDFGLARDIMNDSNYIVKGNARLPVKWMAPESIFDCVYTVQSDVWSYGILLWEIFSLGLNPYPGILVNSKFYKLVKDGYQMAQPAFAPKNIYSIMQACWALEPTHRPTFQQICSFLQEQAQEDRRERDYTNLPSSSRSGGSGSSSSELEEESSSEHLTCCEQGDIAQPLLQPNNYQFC
For experiment [15], the target named is Tyrosine-protein kinase JAK3 (Homo sapiens, UniProt P52333). Format: functional.
The target of experiment [16] is Dual specificity tyrosine-phosphorylation-regulated kinase 1A (Homo sapiens, UniProt Q13627). In kind it is functional.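 Note: measured against DYRK1A as one member of a broad kinome profiling panel.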
Experiment [17] deals with Platelet-derived growth factor receptor alpha (Homo sapiens, UniProt P16234). Description: Navigating the Kinome. Panel member name: PDGFRA. In kind it is functional.
Sequence of Platelet-derived growth factor receptor alpha (P16234 whole entry): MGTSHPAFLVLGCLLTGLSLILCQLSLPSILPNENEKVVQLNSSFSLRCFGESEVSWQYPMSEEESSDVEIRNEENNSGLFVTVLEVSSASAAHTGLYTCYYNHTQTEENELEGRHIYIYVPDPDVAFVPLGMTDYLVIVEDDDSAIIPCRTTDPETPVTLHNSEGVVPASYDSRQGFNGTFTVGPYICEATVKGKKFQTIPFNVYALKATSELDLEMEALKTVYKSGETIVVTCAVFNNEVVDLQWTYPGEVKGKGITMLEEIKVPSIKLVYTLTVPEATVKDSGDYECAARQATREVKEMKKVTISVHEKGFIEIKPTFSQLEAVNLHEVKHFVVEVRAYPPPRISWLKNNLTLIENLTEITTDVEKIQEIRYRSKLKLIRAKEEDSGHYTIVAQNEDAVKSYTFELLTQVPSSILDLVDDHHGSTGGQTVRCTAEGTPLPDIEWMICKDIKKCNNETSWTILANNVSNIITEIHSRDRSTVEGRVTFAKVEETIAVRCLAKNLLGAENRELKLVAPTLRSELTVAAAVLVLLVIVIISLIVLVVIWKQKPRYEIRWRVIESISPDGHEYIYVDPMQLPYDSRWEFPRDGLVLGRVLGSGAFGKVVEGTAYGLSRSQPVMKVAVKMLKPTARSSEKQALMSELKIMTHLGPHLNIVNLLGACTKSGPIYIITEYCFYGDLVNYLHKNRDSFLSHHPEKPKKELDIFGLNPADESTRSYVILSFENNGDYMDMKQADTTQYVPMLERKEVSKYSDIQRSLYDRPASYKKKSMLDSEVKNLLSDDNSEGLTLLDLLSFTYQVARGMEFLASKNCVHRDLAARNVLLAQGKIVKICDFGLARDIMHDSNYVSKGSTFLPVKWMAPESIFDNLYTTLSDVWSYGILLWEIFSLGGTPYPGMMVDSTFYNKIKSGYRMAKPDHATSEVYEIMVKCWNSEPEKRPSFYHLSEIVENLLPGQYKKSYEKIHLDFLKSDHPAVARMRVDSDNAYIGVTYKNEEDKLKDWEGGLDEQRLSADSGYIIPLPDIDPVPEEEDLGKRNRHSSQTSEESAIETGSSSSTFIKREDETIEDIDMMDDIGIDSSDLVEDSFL
Experiment [18] deals with Leucine-rich repeat serine/threonine-protein kinase 2 (Homo sapiens, UniProt Q5S007). Format: functional.
The target of experiment [19] is Glycogen synthase kinase-3 beta (Homo sapiens, UniProt P49841). Format: functional.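 Note: value comes from a broad kinome profiling panel, with GSK3B as the panel member.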
Experiment [20] addresses Dual specificity tyrosine-phosphorylation-regulated kinase 1B (Homo sapiens, UniProt Q9Y463). Description: Navigating the Kinome. Panel member name: DYRK1B. Format: functional.
Experiment [21] deals with Tyrosine-protein kinase JAK2 (Homo sapiens, UniProt O60674). Format: functional.
The target of experiment [22] is Serine/threonine-protein kinase D3 (Homo sapiens, UniProt O94806). Format: functional.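 Note: determined within a kinase panel screen, with PRKCN as the panel member.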
Sequence of Serine/threonine-protein kinase D3 (O94806 whole entry): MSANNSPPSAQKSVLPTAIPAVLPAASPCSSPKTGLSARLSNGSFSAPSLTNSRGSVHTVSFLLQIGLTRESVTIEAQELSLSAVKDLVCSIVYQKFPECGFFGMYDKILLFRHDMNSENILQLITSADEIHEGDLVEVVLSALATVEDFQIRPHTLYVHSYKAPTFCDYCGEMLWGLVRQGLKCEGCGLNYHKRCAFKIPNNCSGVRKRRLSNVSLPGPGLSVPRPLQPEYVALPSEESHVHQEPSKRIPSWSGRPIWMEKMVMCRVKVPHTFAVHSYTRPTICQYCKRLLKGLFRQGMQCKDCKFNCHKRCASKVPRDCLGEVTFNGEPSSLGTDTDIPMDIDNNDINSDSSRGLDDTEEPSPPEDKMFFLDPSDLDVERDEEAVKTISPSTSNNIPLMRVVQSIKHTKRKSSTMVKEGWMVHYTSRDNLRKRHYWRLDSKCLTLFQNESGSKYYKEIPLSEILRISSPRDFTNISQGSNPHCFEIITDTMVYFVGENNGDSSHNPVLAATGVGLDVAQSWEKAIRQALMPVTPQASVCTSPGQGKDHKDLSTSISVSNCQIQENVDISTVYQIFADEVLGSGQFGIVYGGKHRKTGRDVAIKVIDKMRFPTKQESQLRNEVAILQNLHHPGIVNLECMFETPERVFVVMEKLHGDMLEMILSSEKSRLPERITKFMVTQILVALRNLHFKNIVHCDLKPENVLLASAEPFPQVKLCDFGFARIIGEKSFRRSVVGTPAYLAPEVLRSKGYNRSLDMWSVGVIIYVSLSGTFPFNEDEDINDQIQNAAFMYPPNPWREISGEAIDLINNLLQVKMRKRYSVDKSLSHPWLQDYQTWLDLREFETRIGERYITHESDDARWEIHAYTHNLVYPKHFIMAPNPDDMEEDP
Experiment [23] concerns the target Dual specificity protein kinase CLK4 (Homo sapiens, UniProt Q9HAZ1). In kind it is functional.
In experiment [24] the target is Luciferin 4-monooxygenase (Photinus pyralis, UniProt P08659). Description: Counter Screen for Luciferase-based Assay Positives. [Related pubchem assays: 620, 618, 411 ].
In experiment [25] the target is T1, Sentrin-specific protease 7 (Homo sapiens, UniProt Q9BQF6).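 Note: Luminescence-based dose-response confirmation of ultra-high-throughput screening hits, measuring inhibition of SENP7.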
T1 sequence (Q9BQF6 whole entry): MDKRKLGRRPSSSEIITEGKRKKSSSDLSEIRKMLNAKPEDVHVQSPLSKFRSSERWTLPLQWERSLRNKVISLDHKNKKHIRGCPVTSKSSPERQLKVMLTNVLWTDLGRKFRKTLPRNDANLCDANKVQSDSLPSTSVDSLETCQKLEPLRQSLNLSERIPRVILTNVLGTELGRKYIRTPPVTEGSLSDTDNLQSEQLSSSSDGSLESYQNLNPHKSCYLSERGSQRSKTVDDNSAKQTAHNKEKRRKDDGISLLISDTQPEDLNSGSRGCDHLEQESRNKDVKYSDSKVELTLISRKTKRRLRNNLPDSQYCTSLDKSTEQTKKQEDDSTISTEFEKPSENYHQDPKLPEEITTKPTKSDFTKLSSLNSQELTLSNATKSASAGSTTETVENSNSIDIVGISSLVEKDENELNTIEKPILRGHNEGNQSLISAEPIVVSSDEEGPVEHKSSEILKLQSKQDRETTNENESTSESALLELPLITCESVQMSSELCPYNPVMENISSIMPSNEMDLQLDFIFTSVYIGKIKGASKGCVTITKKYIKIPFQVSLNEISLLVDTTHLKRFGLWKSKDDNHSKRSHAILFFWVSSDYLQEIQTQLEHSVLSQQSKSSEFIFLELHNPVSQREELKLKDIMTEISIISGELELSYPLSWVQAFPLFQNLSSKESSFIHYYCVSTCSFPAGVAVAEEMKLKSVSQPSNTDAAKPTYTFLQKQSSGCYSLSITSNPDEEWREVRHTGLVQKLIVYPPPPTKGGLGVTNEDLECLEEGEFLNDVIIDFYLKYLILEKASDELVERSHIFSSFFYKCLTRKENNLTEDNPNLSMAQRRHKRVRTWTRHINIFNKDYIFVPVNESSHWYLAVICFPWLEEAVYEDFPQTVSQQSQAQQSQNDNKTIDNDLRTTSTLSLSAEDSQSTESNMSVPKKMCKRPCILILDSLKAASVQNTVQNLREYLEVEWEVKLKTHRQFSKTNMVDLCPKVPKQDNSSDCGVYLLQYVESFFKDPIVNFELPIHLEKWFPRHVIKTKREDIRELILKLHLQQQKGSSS
Format: functional.

In experiment [26] the target is T2, Estrogen receptor beta (Homo sapiens, UniProt Q92731).
T2 sequence (Q92731 whole entry): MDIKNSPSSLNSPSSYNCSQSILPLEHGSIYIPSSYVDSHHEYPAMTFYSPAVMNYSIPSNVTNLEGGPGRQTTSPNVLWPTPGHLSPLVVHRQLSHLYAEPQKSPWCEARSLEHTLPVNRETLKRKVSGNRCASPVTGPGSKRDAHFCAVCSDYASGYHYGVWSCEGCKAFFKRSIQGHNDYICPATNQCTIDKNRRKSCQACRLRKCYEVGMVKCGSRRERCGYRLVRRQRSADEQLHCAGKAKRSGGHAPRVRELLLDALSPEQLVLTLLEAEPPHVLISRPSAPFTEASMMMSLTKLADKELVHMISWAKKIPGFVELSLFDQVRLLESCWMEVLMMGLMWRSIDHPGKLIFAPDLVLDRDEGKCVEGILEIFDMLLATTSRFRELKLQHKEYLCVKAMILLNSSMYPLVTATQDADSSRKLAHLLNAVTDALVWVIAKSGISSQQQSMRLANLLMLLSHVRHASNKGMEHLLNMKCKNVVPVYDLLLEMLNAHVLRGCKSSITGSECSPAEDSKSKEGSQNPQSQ
Experiment [27] concerns HT-1080. Description: cytotoxicity in HT1080 fibrosarcoma cells, cell-based, fluorescence readout (AID 620). The conditions noted are these: Homo sapiens. Format: functional.
Experiment [28] deals with T2, Estrogen receptor beta. The experiment in a line: ERβ–SRC-3 coactivator interaction inhibitors, confirmation, orthogonal assay, biochemical, ELISA, streptavidin-HRP readout (AID 1060). On the technique in general: An ELISA detects its analyte on a solid surface through an enzyme-linked reagent.

Activity calls are given as the source filed them.

With `CN1CCN(C(c2ccc(C(F)(F)F)cc2)c2cc(Cl)c3cccnc3c2O)CC1` (stereo not drawn), the figures for the EC50 in [1], in experiment [3] and in experiment [4] were 9.3 µM (active), 6.54 µM (active) and 6.72 µM (active), respectively. Further, the IC50 (in general, the concentration at which inhibition is half-maximal) in experiment [2] was > 119 µM (inactive). The AC50 (commonly the concentration at which the activity in the assay is half-maximal) in experiment [5] was 3.18 µM (active).

`O=C(NC(CCO)c1ccccc1)c1ccc(-c2ccncc2)cc1` (stereo not drawn): the Ki – broadly, a dissociation constant, usually derived from enzyme kinetics or from competition with a known ligand – was > 3.16 µM (inactive) in [6]; > 3.98 µM (inactive) in [7]; > 1.58 µM (inactive) in experiment [8]; 0.316 µM (active) in experiment [9]; > 3.98 µM (inactive) in [10]; > 3.98 µM (inactive) in experiment [11]. The Ki was > 3.16 µM (inactive) in experiment [12]; > 2.51 µM (inactive) in [13]; > 2.51 µM (inactive) in experiment [14]; > 5.01 µM (inactive) in experiment [15]; > 2 µM (inactive) in experiment [16]; > 2.51 µM (inactive) in experiment [17]. Further, the Ki is > 2.51 µM (inactive) in experiment [18]; 1.26 µM (active) in experiment [19]; > 2.51 µM (inactive) in experiment [20]; > 2.51 µM (inactive) in [21]; > 3.98 µM (inactive) in experiment [22]; 0.316 µM (active) in [23].

As for `NC(=O)c1c(NC(=O)c2cc3ccccc3o2)sc2c1CCC2`, the figures for the EC50 in experiment [24] and in [27] were 1.7 µM (active) and > 50 µM (not active), respectively. The IC50 in experiment [25] is 3.74 µM (active); in [26], > 50 µM (not active); in [28], 0.0552 µM (not active).
